Our source for the inhibition values is patent US8673815B2, “Herbicidal composition” (Ishihara Sangyo Kaisha, Ltd., priority 2010, dated 2014).

One may read the inhibition as the relative decrease from the control value, in per cent.

Assay [1] relates to crabgrass (Digitaria sanguinalis.). Nature of the assay: Foliar treatment pot test on crabgrass, visual growth inhibition rate (Test Example 1). Format: in vivo. The conditions noted are these: foliar treatment at 3.8 to 4.0-leaf stage, 28th day after treatment, read-out: Growth inhibition rate (%) of crabgrass, Measured value. The source says:
When the herbicidal activity in a case where two active ingredients are combined, is larger than the simple sum of the respective herbicidal activities of the two active ingredients (the expected activity), it is called a synergistic effect. The activity expected by the combination of two active ingredients can be calculated as follows (Colby S. […] E=α+β-(α×β÷100) where α: growth inhibition rate when treated with x (g/ha) of herbicide X, β: growth inhibition rate when treated with y (g/ha) of herbicide Y, E: growth inhibition rate expected when treated with x (g/ha) of herbicide X and y (g/ha) of herbicide Y. Upland field soil was put into a 1/1,000,000 ha pot, and seeds of crabgrass (Digitaria sanguinalis.) were sown. When the crabgrass reached 3.8 to 4.0-leaf stage, predetermined amounts of water dispersible granules comprising flazasulfuron as an active ingredient (trade name: […] manufactured by Ishihara Sangyo Kaisha, Ltd.) were diluted with water (corresponding to 300 L/ha) containing 0.1 vol % of an agricultural adjuvant (trade name: […] manufactured by NIHON NOHYAKU CO., LTD.) and applied for foliar treatment by a small sprayer. On the 28th day after treatment, the state of growth of the crabgrass was visually observed to determine the growth inhibition rate in accordance with the following evaluation standard. The growth inhibition rate (%) (measured value) and the growth inhibition rate (%) (calculated value) calculated by the Colby's formula are shown in Table 1. Growth inhibition rate (%)=0 (equivalent to the non-treated area) to 100 (complete kill)

Assay [2] relates to bermuda grass (Cynodon dactylon (L.) Pers.). Nature of the assay: Foliar treatment pot test on bermuda grass, visual growth inhibition rate (Test Example 2). The conditions noted are these: in Cynodon dactylon, foliar treatment at 5.0 to 7.0-leaf stage, 21st day after treatment, read-out: Growth inhibition rate (%) of bermuda grass, Measured value. The format is in vivo. The source says:
When the herbicidal activity in a case where two active ingredients are combined, is larger than the simple sum of the respective herbicidal activities of the two active ingredients (the expected activity), it is called a synergistic effect. The activity expected by the combination of two active ingredients can be calculated as follows (Colby S. R., “Weed”, vol. 15, p. 20-22, 1967). E=α+β-(α×β÷100) where α: growth inhibition rate when treated with x (g/ha) of herbicide X, β: growth inhibition rate when treated with y (g/ha) of herbicide Y, E: growth inhibition rate expected when treated with x (g/ha) of herbicide X and y (g/ha) of herbicide Y. Growth inhibition rate (%)=0 (equivalent to the non-treated area) to 100 (complete kill) Upland field soil was put into a 1/1,000,000 ha pot, and seeds of bermuda grass (Cynodon dactylon (L.) Pers.) were sown. When the bermuda grass reached 5.0 to 7.0-leaf stage, predetermined amounts of water dispersible granules comprising flazasulfuron as an active ingredient (trade name: […]) were diluted with water (corresponding to 1,000 L/ha) containing 0.05 vol % of an agricultural adjuvant (trade name: […]) and applied for foliar treatment by a small sprayer. On the 21st day after treatment, the state of growth of the bermuda grass was visually observed to determine the growth inhibition rate. The growth inhibition rate (%) (measured value) and the growth inhibition rate (%) calculated in the same manner as in Test Example 1 are shown in Table 2.

As for `COc1cc(OC)nc(NC(=O)NS(=O)(=O)c2ncccc2C(F)(F)F)n1` [Flazasulfuron, 1-(4,6-dimethoxypyrimidin-2-yl)-3-(3-trifluoromethyl-2-pyridylsulfonyl)urea], the inhibition at 12.5 g/ha in assay [1] (dose 12.5 g/ha) came out at 87%. Also, the inhibition at 10 g/ha in assay [2] amounted to 0%. Also, the inhibition at 200 g/ha in assay [2] (dose 200 g/ha) turned out to be 45%.

`COc1cc(OC)nc(NC(=O)NS(=O)(=O)c2ncccc2C(=O)N(C)C)n1` [Nicosulfuron, 2-(4,6-dimethoxypyrimidin-2-ylcarbamoylsulfamoyl)-N,N-dimethylnicotinamide]: in assay [1] (dose 15 g/ha), the inhibition at 15 g/ha came to 7%. Also, the inhibition at 40 g/ha in assay [1] (dose 40 g/ha) was found to be 22%. In addition, the inhibition at 10 g/ha in assay [2] was found to be 8%. Also, the inhibition at 150 g/ha in assay [2] (dose 150 g/ha) was 90%.
